# Source: patent US20190255073A1, “ESTERS OF 3-POLYAMINE DERIVATIVES OF BILE ACIDS FOR THE TREATMENT OF INFECTIONS” (VIRBAC, priority 2016, published 2019)
# Columns and labels:
# S. intermedius (1051997) = assay: MIC determination by microplate dilution, S. intermedius animal strain; assay type: cell-based, Staphylococcus intermedius; details: Staphylococcus intermedius, Gram-positive, Mueller-Hinton medium, 24 h, 37° C.
# Experimental: (§1) 1) Preparation of the Preculture
# (§2) A negative control (2 mL of sterile culture medium)
# (§3) A positive control (1940 μL of culture medium+40 μL of DMSO+20 μL of bacterial suspension) from a thawed biological strain (the biological strains are stored at −80° C. in glycerol).
# (§4) The tubes were incubated at 37° C. for 24 hours at 100 rpm.
# (§5) The microorganisms were handled under a type L2 laboratory fume cupboard and, before any handling, a UV cycle was programmed and only sterile material was used. […] The chemical compounds to be tested were prepared in a DMSO/methanol mixture (50/50) at a concentration of 5 mg/mL.
# (§6) 2) Preparation of the Microplate for the Determination of the Minimum Inhibitory Concentration (MIC)
# (§7) After 24 hours of incubation, a measurement of the optical density was taken using a spectrophotometer at 600 nm, collecting 100 μL of the bacterial suspension diluted in 900 μL of the sterile culture medium. This test required the use of a 96-well plate and the required volume of the microbial suspension to be seeded was calculated for an OD corresponding to a value equal to 0.01 in each well. In this plate, the first line corresponded to the negative control (195 μL of sterile culture medium in each well), the second line to the positive control (seeded culture medium supplemented with 2% of DMSO), the third line was loaded twice with bacterial suspension, 8 μL of test product were placed in each well. Thereafter, a 0.5 cascade dilution was performed from this line.
# (§8) The first column served as inhibition control. A sterile filter was then placed on the microplate, allowing the passage of gases but not of contaminants. The microplate was incubated at 37° C. under a humid atmosphere for 24 hours.
# (§9) NB: The medium used is Mueller-Hinton (MH) medium for bacteria. All the tests were performed in duplicate.
# (§10) 4) Reading of the Results
# (§11) After incubation, the filter was replaced with a transparent film, and an OD reading was then taken in an iEMS plate spectrophotometer at 620 nm. Calculation of the minimum inhibitory concentration (MIC) was performed.
# E. coli (1956) = assay: MIC determination by microplate dilution, E. coli animal strain; assay type: cell-based, Escherichia coli; details: Escherichia coli, Gram-negative, Mueller-Hinton medium, 24 h, 37° C.
# Experimental: as §1, §2, §3, §4, §5, §6, §7, §8, §9, §10, §11
# P. aeruginosa (1051575) [1] = assay: Potentiation of the doxycycline activity at 2 μg/mL; assay type: cell-based, Pseudomonas aeruginosa; details: in combination with doxycycline 2 μg/mL; 24 h, 37°
# E. faecalis ATCC29212 = assay: MIC determination by microplate dilution, E. faecalis human strain; assay type: cell-based, Enterococcus faecalis; details: Enterococcus faecalis, ATCC29212, Gram-positive, Mueller-Hinton medium, 24 h, 37° C.
# Experimental: as §1, §2, §3, §4, §5, §6, §7, §8, §9, §10, §11
# CHO-K1 cells = assay: WST1 cytotoxicity test on CHO-K1 cells; assay type: cell-based, Chinese hamster; details: Cricetulus griseus, CHO-K1, 24 h, read-out: IC50 (μg/mL) CHO
# Experimental: Test WST1 was used to measure the cytotoxic activity of the products. This is a colorimetric test which makes it possible to measure the viability and the degree of cell proliferation. It is based on cleavage of the colorless tetrazolium salts WST-1 (4-[3-(4-iodophenyl)-2-(4-nitrophenyl)-2H-5-tetrazolio]-1,3-benzene disulfonate) with mitochondrial dehydrogenases to the yellow-colored formazan derivative, which may be quantified by spectrophotometry at 420-480 nm.
# The WST1 test was performed on Chinese hamster ovary cells. The CHO-K1 cells (ATCC, USA) are kept in culture on McCoy's 5A medium supplemented with 10% fetal calf serum, 2 mM of L-glutamine and a mixture of penicillin-streptomycin (100 U/ml: 10 μg/mL). The culture is incubated at 37° C. under an atmosphere enriched in CO2 (5%), and subcultured every two days.
# The cells are transferred into 96-well plates (25 000 cells/mL) in whole McCoy's 5A medium, and maintained for 24 hours at 37° C. under a humid atmosphere enriched in CO2 (5%). Increasing concentrations of test products are added to the wells in double tests and 8 growth controls containing the cells in the medium alone are included in each series of tests. After 24 hours at 37° C. (5% CO2), the culture medium is removed, the cells are rinsed in phosphate buffer (PBS) and 50 μL of PBS containing 10% of reagent WST1 are added to each well. After 20 minutes of incubation at 37° C., the results are read by spectrophotometry at 450 nm.
# The results are expressed in dose-response relationships, modeled by nonlinear regression analysis using the TableCurve software. The 50% inhibitory concentration (IC50) represents the concentration of product that is capable of reducing the cell viability by 50%.
# E. coli ATCC28922 = assay: MIC determination by microplate dilution, E. coli human strain; assay type: cell-based, Escherichia coli; details: Escherichia coli, ATCC28922, Gram-negative, Mueller-Hinton medium, 24 h, 37° C.
# Experimental: as §1, §2, §3, §4, §5, §6, §7, §8, §9, §10, §11
# S. aureus (340) = assay: MIC determination by microplate dilution, S. aureus animal strain; assay type: cell-based, Staphylococcus aureus; details: Staphylococcus aureus, Gram-positive, Mueller-Hinton medium, 24 h, 37° C.
# Experimental: as §1, §2, §3, §4, §5, §6, §7, §8, §9, §10, §11
# P. aeruginosa ATCC27853 = assay: MIC determination by microplate dilution, P. aeruginosa human strain; assay type: cell-based, Pseudomonas aeruginosa; details: Pseudomonas aeruginosa, ATCC27853, Gram-negative, Mueller-Hinton medium, 24 h, 37° C.
# Experimental: as §1, §2, §3, §4, §5, §6, §7, §8, §9, §10, §11
# S. aureus ATCC25923 = assay: MIC determination by microplate dilution, S. aureus human strain; assay type: cell-based, Staphylococcus aureus; details: Staphylococcus aureus, ATCC25923, Gram-positive, Mueller-Hinton medium, 24 h, 37° C.
# Experimental: as §1, §2, §3, §4, §5, §6, §7, §8, §9, §10, §11
# P. aeruginosa (1051575) [2] = assay: MIC determination by microplate dilution, P. aeruginosa animal strain; assay type: cell-based, Pseudomonas aeruginosa; details: Pseudomonas aeruginosa, Gram-negative, Mueller-Hinton medium, 24 h, 37° C.
# Experimental: as §1, §2, §3, §4, §5, §6, §7, §8, §9, §10, §11
Structure (SMILES),MIC (S. intermedius (1051997)),MIC (E. coli (1956)),MIC - P. aeruginosa (1051575): content of compound of formula (I) to restore the doxycycline activity (at 2 μg/mL) (P. aeruginosa (1051575) [1]),MIC (E. faecalis ATCC29212),IC50 (CHO-K1 cells),MIC (E. coli ATCC28922),MIC (S. aureus (340)),MIC (P. aeruginosa ATCC27853),MIC (S. aureus ATCC25923),MIC (P. aeruginosa (1051575) [2])
"CC(C)OC(=O)CC[C@@H](C)[C@H]1CCC2C3CCC4C[C@@H](NCCCN(CCCN)CCCN)CC[C@]4(C)C3C[C@H](O)[C@@]21C (stereo partly drawn) [(28), isopropyl 3β-(tris(3-aminopropyl)amine)deoxycholate]",8 µg/mL,30 µg/mL,2 µg/mL,30 µg/mL,85 µg/mL,15 µg/mL,15 µg/mL,30 µg/mL,15 µg/mL,30 µg/mL
"CC(C)OC(=O)CC[C@@H](C)[C@H]1CCC2C3CCC4C[C@@H](NCCCN(C)CCCN)CC[C@]4(C)C3C[C@H](O)[C@@]21C (stereo partly drawn) [(30), isopropyl 3β-(bis(3-aminopropyl)methylamine)deoxycholate]",14 µg/mL,56 µg/mL,7 µg/mL,56 µg/mL,,28 µg/mL,28 µg/mL,56 µg/mL,28 µg/mL,56 µg/mL
"CC(C)OC(=O)CC[C@@H](C)[C@H]1CCC2C3C(C[C@H](O)[C@@]21C)[C@@]1(C)CC[C@H](NCCCN(CCCN)CCCN)CC1C[C@H]3O (stereo partly drawn) [(34), isopropyl 3β-(tris(3-aminopropyl)amine)cholate]",7 µg/mL,30 µg/mL,4 µg/mL,30 µg/mL,,30 µg/mL,15 µg/mL,30 µg/mL,15 µg/mL,30 µg/mL
"COC(=O)CC[C@@H](C)[C@H]1CCC2C3C(CC[C@@]21C)[C@@]1(C)CC[C@H](NCCCN(C)CCCN)CC1C[C@H]3O (stereo partly drawn) [(37), methyl 3β-(bis(3-aminopropyl)methylamine)chenodeoxycholate]",> 107 µg/mL,13 µg/mL,3 µg/mL,13 µg/mL,115 µg/mL,27 µg/mL,27 µg/mL,27 µg/mL,27 µg/mL,13 µg/mL
"CC(C)OC(=O)CC[C@@H](C)[C@H]1CCC2C3C(CC[C@@]21C)[C@@]1(C)CC[C@H](NCCCN(C)CCCN)CC1C[C@H]3O (stereo partly drawn) [(41), isopropyl 3β-(bis(3-aminopropyl)methylamine)chenodeoxycholate]",7 µg/mL,28 µg/mL,4 µg/mL,28 µg/mL,4 µg/mL,56 µg/mL,14 µg/mL,28 µg/mL,14 µg/mL,28 µg/mL
"COC(=O)CC[C@@H](C)[C@H]1CCC2C3C(CC[C@@]21C)[C@@]1(C)CC[C@H](NCCNCCNCCNCCNCCN)CC1C[C@@H]3O (stereo partly drawn) [(50), methyl 3β-(pentaethylenehexamine)ursodeoxycholate]",8 µg/mL,60 µg/mL,16 µg/mL,60 µg/mL,45 µg/mL,60 µg/mL,30 µg/mL,60 µg/mL,30 µg/mL,60 µg/mL
